# Measurements reported in patent US11427548B2 (Arvinas Operations, Inc., priority 2015, dated 2022).
# Like-named read-outs stand apart in the source and are kept apart here.
# Molecular target: T1, Androgen Receptor (Homo sapiens, UniProt P10275)
# T1 construct: endogenous in cells; host or cells: VCaP cells
# T1 sequence (P10275 1-920): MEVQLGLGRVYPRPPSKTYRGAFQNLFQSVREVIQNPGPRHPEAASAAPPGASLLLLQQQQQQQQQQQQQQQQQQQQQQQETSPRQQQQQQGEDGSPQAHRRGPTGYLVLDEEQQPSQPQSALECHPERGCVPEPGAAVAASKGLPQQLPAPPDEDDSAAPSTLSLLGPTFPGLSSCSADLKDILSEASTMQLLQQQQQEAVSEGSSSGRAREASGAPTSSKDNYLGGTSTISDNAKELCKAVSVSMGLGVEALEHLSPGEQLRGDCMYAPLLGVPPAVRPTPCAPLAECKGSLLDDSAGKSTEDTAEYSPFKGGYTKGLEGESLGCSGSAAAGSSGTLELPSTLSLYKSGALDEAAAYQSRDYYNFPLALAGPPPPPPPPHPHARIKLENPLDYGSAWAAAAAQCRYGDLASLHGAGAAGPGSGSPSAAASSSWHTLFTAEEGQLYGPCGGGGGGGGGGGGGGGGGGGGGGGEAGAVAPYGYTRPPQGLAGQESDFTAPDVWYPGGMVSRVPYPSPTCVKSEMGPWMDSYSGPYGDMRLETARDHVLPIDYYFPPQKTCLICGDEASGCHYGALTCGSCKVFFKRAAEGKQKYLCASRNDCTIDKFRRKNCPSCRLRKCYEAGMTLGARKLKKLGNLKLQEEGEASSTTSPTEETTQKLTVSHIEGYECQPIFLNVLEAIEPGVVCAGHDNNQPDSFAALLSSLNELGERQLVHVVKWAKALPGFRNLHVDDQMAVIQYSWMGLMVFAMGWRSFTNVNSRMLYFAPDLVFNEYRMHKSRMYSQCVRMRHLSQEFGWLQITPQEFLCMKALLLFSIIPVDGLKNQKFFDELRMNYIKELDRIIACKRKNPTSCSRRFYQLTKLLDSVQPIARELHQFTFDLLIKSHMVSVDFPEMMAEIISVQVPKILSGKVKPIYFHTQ
# Experiment: Androgen Receptor ELISA assay (PathScan AR ELISA) in VCaP cells: AR degradation, Dmax and DC50
# Format: cell-based
# How it was run: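 VCaP cells, 30,000/well, grown ≥3 days in phenol red-free RPMI with 5% charcoal-stripped FBS; compound added in 0.1% DMSO with 0.1 nM R1881, 7 half-log doses, 24 h. Lysate AR quantified by PathScan sandwich ELISA, HRP/TMB read at 450 nm, giving DC50 and Dmax.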
# [1] = VCaP cells; Table 36; read-out: VCaP DC50
# [2] = VCaP, VCaP cells; Table 36; read-out: VCaP Dmax (%)
# [3] = VCaP, read-out: VCaP Dmax (%), VCaP cells; Table 36
smiles,measurement,setting,value
"Cc1ncoc1-c1ccc(CNC(=O)[C@@H]2C[C@@H](O)CN2C(=O)[C@@H](NC(=O)COCCCCOc2ccc(-c3ccc(N4C(=S)N(c5cnc(C#N)c(C(F)(F)F)c5)C(=O)C45CCC5)cc3)cc2)C(C)(C)C)cc1 [Example 198, (2S,4R)-1-[(2S)-2-(2-{4-[4-(4-{7-[6-cyano-5-(trifluoromethyl)pyridin-3-yl]-8-oxo-6-sulfanylidene-5,7-diazaspiro[3.4]octan-5-yl}phenyl)phenoxy]butoxy}acetamido)-3,3-dimethylbutanoyl]-4-hydroxy-N-{[4-(4-methyl-1,3-oxazol-5-yl)phenyl]methyl}pyrrolidine-2-carboxamide]",DC50,VCaP cells; concentration that caused 50% Androgen Receptor degradation; read-out: VCaP DC50,< 50 nM
same,Dmax,"VCaP, VCaP cells; highest percentage of Androgen Receptor degradation; read-out: VCaP Dmax (%)",51 to 70%
"Cc1nccn1-c1ccc([C@H](C)NC(=O)[C@@H]2C[C@@H](O)CN2C(=O)[C@H](C(C)C)n2cc(OCCCOCCCCCOc3ccc(N4C(=S)N(c5ccc(C#N)c(C(F)(F)F)c5)C(=O)C4(C)C)cc3)cn2)cc1 [Example 611, (2S,4R)-1-((S)-2-(4-(3-((5-(4-(3-(4-cyano-3-(trifluoromethyl)phenyl)-5,5-dimethyl-4-oxo-2-thioxoimidazolidin-1-yl)phenoxy)pentyl)oxy)propoxy)-1H-pyrazol-1-yl)-3-methylbutanoyl)-4-hydroxy-N-((S)-1-(4-(2-methyl-1H-imidazol-1-yl)phenyl)ethyl)pyrrolidine-2-carboxamide]",Dmax,"VCaP, read-out: VCaP Dmax (%)",< 25%
same,DC50,read-out: VCaP DC50; VCaP cells; Table 36,> 501 nM
"Cc1ncsc1-c1ccc([C@H](C)NC(=O)C2C[C@@H](O)CN2C(=O)C(c2cc(OCCN(C)[C@H](C(=O)NC(C(=O)N3CCN(c4ccc(C(=O)NC5C(C)(C)C(Oc6ccc(C#N)c(Cl)c6)C5(C)C)cc4)CC3)C(C)C)C(C)C)no2)C(C)C)cc1 (stereo partly drawn) [Example 810, (2S,4R)-1-(2-(3-(2-(((S)-1-(((S)-1-(4-(4-(((1r,3S)-3-(3-chloro-4-cyanophenoxy)-2,2,4,4-tetramethylcyclobutyl)carbamoyl)phenyl)piperazin-1-yl)-3-methyl-1-oxobutan-2-yl)amino)-3-methyl-1-oxobutan-2-yl) (methyl)amino)ethoxy)isoxazol-5-yl)-3-methylbutanoyl)-4-hydroxy-N-((S)-1-(4-(4-methylthiazol-5-yl)phenyl)ethyl) pyrrolidine-2-carboxamide]",DC50,[1],< 50 nM
same,Dmax,"VCaP, read-out: VCaP Dmax (%)",> 71%
"CC(C)(C)[C@H](NC(=O)COCCN1CCN(c2ccc(C(=O)N[C@H]3C(C)(C)[C@H](Oc4ccc(C#N)c(Cl)c4)C3(C)C)cn2)CC1)C(=O)N1C[C@H](O)C[C@H]1C(=O)NCc1cc(F)ccc1F [Example 775, N-((1r,3r)-3-(3-chloro-4-cyanophenoxy)-2,2,4,4-tetramethylcyclobutyl)-6-(4-(2-(2-(((S)-1-((2S,4R)-2-((2,5-difluorobenzyl)carbamoyl)-4-hydroxypyrrolidin-1-yl)-3,3-dimethyl-1-oxobutan-2-yl)amino)-2-oxoethoxy)ethyl)piperazin-1-yl)nicotinamide]",DC50,[1],> 501 nM
same,Dmax,[2],< 25%
"Cc1ncsc1-c1ccc(CNC(=O)[C@@H]2C[C@@H](O)CN2C(=O)[C@@H](NC(=O)CN2CCN(CCOc3ccc(C(=O)N[C@H]4C(C)(C)[C@H](Oc5ccc(C#N)c(C(F)(F)F)c5)C4(C)C)cc3)CC2)C(C)(C)C)cc1 [Example 646, (2S,4R)-1-((S)-2-(2-(4-(2-(4-(((1r,3r)-3-(4-cyano-3-(trifluoromethyl)phenoxy)-2,2,4,4-tetramethylcyclobutyl)carbamoyl)phenoxy)eth-yl)piperazin-1-yl)actamido)-3,3-dimethylbutanoyl)-4-hydroxy-N-(4-(4-methylthiazol-5-yl)benzyl)pyrrolidine-2-carboxamide]",DC50,[1],< 50 nM
same,Dmax,[2],26 to 50%
"Cc1ncsc1-c1ccc([C@H](C)NC(=O)[C@@H]2C[C@@H](O)CN2C(=O)[C@@H](NC(=O)COCCCCOc2ccc(C(=O)N[C@H]3C(C)(C)[C@H](Oc4ccc(C#N)c(Cl)c4)C3(C)C)cc2)C(C)(C)C)cc1 [Example 167, (2S,4R)-1-[(2S)-3,3-dimethyl-2-{2-[4-(4-{[trans-3-(3-chloro-4-cyanophenoxy)-2,2,4,4-tetramethylcyclobutyl]carbamoyl}phenoxy)butoxy]acetamido}butanoyl]-4-hydroxy-N-[(1S)-1-[4-(4-methyl-1,3-thiazol-5-yl)phenyl]ethyl]pyrrolidine-2-carboxamide]",Dmax,"VCaP, highest percentage of Androgen Receptor degradation observed, VCaP cells (Table 32); read-out: VCaP Dmax (%)",> 71%
same,DC50,"concentration that caused 50% Androgen Receptor degradation, VCaP cells (Table 32); read-out: VCaP DC50",< 50 nM
"Cc1ncsc1-c1ccc([C@H](C)NC(=O)[C@@H]2C[C@@H](O)CN2C(=O)[C@@H](NC(=O)COCCN(C)CCCc2ccc(C(=O)N[C@H]3C(C)(C)[C@H](Oc4ccc(C#N)c(Cl)c4)C3(C)C)nc2)C(C)(C)C)cc1 [Example 678, N-((1r,3r)-3-(3-chloro-4-cyanophenoxy)-2,2,4,4-tetramethylcyclobutyl)-5-(3-((2-(2-(((S)-1-((2S,4R)-4-hydroxy-2-(((S)-1-(4-(4-methylthiazol-5-yl)phenyl)ethyl)carbam-oyl)pyrrolidin-1-yl)-3,3-dimethyl-1-oxobutan-2-yl)amino)-2-oxoethoxy)ethyl)(meth-yl)amino)propyl)picolin-amide]",DC50,[1],> 501 nM
"Cc1ncsc1-c1ccc([C@H](C)NC(=O)[C@@H]2C[C@@H](O)CN2C(=O)[C@@H](NC(=O)COCCCCCc2ccc(C(=O)N[C@H]3C(C)(C)[C@H](Oc4ccc(C#N)c(C(F)(F)F)c4)C3(C)C)cc2)C(C)(C)C)cc1 [Example 657, (2S,4R)-1-((S)-2-(2-((5-(4-(((1r,3r)-3-(4-cyano-3-(trifluoromethyl)phenoxy)-2,2,4,4-tetramethylcyclobutyl)carbamoyl)phenyl)pentyl)oxy)acetamido)-3,3-dimethylbutanoyl)-4-hydroxy-N-((S)-1-(4-(4-methylthiazol-5-yl)phenyl)ethyl)pyrrolidine-2-carboxamide]",DC50,[1],< 50 nM
same,Dmax,[3],51 to 70%
Cc1ncsc1-c1ccc([C@H](C)NC(=O)[C@@H]2C[C@@H](O)CN2C(=O)[C@@H](NC(=O)COC[C@H](O)[C@@H](O)COc2ccc(-c3ccc(N4C(=S)N(c5ccc(C#N)c(C(F)(F)F)c5)C(=O)C4(C)C)cc3)cc2)C(C)(C)C)cc1 [Example 559],Dmax,"VCaP, read-out: VCaP Dmax (%)",> 71%
same,DC50,read-out: VCaP DC50; VCaP cells; Table 35,< 50 nM
"Cc1ncsc1-c1ccc([C@H](C)NC(=O)[C@@H]2C[C@@H](O)CN2C(=O)[C@@H](NC(=O)CN2CCN(CCCN3CCN(c4ccc(C(=O)N[C@H]5C(C)(C)[C@H](Oc6ccc(C#N)c(C#N)c6)C5(C)C)cn4)CC3)CC2)C(C)(C)C)cc1 [Example 715, N-((1r,3r)-3-(3,4-dicyanophenoxy)-2,2,4,4-tetramethylcyclobutyl)-6-(4-(3-(4-(2-(((S)-1-((2S,4R)-4-hydroxy-2-(((S)-1-(4-(4-methylthiazol-5-yl)phenyl)ethyl)carbam-oyl)pyrrolidin-1-yl)-3,3-dimethyl-1-oxobutan-2-yl)amino)-2-oxoethyl)piperazin-1-yl)propyl)piperazin-1-yl)nicotinamide]",DC50,[1],< 50 nM
same,Dmax,[3],51 to 70%
"COc1cc(C#N)ccc1[C@H](C)NC(=O)[C@@H]1C[C@@H](O)CN1C(=O)[C@@H](NC(=O)CCCCN1CCN(c2ccc(C(=O)N[C@H]3C(C)(C)[C@H](Oc4ccc(C#N)c(Cl)c4)C3(C)C)cn2)CC1)C(C)(C)C [Example 784, N-((1r,3r)-3-(3-chloro-4-cyanophenoxy)-2,2,4,4-tetramethylcyclobutyl)-6-(4-(5-(((S)-1-((2S,4R)-2-(((S)-1-(4-cyano-2-methoxyphenyl)ethyl)carbamoyl)-4-hydroxypyrrolidin-1-yl)-3,3-dimethyl-1-oxobutan-2-yl)amino)-5-oxopentyl)piperazin-1-yl)nicotinamide]",DC50,[1],> 501 nM
same,Dmax,[2],< 25%
CC(C)(C)[C@H](NC(=O)COCCCCNc1ccc(C(=O)N[C@H]2C(C)(C)[C@H](Oc3ccc(C#N)c(Cl)c3)C2(C)C)cc1)C(=O)N1C[C@H](O)C[C@H]1C(=O)NCc1ccc(-c2scnc2C2CC2)cc1 [Example 412],DC50,VCaP cells; Table 34; read-out: VCaP DC50,< 50 nM
same,Dmax,"VCaP, VCaP cells; Table 34; read-out: VCaP Dmax (%)",51 to 70%
